From patent US20050267016A1, “CD-10 activated prodrug compounds” (priority 2001, published 2005)
Read-outs that look alike come from different tables or passages of the source. Marks after values point to notes of the source that are not given here.

Tests used:
Ramos cells (CD10pos) = assay: cells; conditions: for Ratio Ball-1:Ramos: ratio of IC50
Method: (§1) Suspension cells, BALL-1, Ramos and Namalwa cells were cultured in RPMI media containing 10% heat inactivated fetal calf serum (FCS). On the day of the study, the cells were collected, washed and resuspended at a concentration of 0.5×10^6 cells/ml in RPMI containing 10% FCS. 100 µl of cell suspension was added to 96 well plates. […] Finally 10 μl of a 100 μCi/ml ^3H-thymidine was added per well and the plates were incubated for 24 hours. The plates were harvested using a 96 well Harvester (Packard Instruments) and counted on a Packard Top Count counter. Four parameter logistic curves were fitted to the ^3H-thymidine incorporation as a function of drug molarity using Prism software to determine IC50 values.
(§2) The effect of two known inhibitors of CD10 on prodrug activity in Ramos, LNCaP and Ball-1 cells was evaluated. The IC50 of Suc-βAla-Ile-Ala-Leu-Dox was determined in the presence of increasing concentration of the CD10 inhibitors, phosphoramidon and thiorphan.

BALL-1 cells (CD10neg) = assay: cells
Method: as §1, §2

[1] = test system: LNCaP prostate carcinoma xenograft; assay: LNCaP prostate carcinoma xenograft in nude mice, Q7D × 3 (Examples 30, 31); conditions: for Toxic Endpoint: >20% body weight loss; for Cancer Endpoint: tumors reaching 1000 mg
Method: In this model, 7.5 million LNCaP cells resuspended in 0.1 ml of phosphate buffered saline and 0.1 ml of Matrigel (Becton Dickinson) were injected into the side of male nude mice fed on high fat diet.

[2] = Metabolism and clearance in normal mice (plasma and urine, LC MS/MS); type: in vivo; conditions: for dose excreted: iv, 117 mg/kg
Method: The metabolism and clearance of Suc-Ile-Ala-Leu-Dox was studied in normal mice. The mice were administered Suc-Ile-Ala-Leu-Dox at a single intravenous bolus dose of 117 mg/kg. Plasma samples were obtained at 1 and 4 hours. Plasma samples of 100 μl were transferred to microcentrifuge tubes (1.5 mL) and an internal standard of daunorubicin (20 μL at 0.5 mg/ml) was added together with acetonitrile (400 μl). The tubes were capped and briefly vortexed followed by centrifugation at 14,000 rpm. 420 μl from each tube was removed and dried in vacuo. Each sample was reconstituted in 65 μl 20 mM aqueous ammonium formate pH 4.5 buffer (AF) containing acetonitrile (20%) prior to analysis by reverse phase liquid chromatography in combination with tandem mass spectrometry (LC MS/MS).
Urine was collected at 2 and 24 hours post administration from pairs of mice in metabolic cages. Urine samples were diluted with AF containing acetonitrile (20%) to give a target analyte concentration within the practical range of the LC MS/MS assay. 30 μl of each diluted sample was placed in an Eppendorf tube (1.5 ml) and an internal standard of daunorubicin (20 μL at 0.5 mg/ml) was added together with 50 μl of AF containing acetonitrile (20%). Each sample was then analyzed by LC MS/MS.
An Agilent HP1100 HPLC with DAD detector and Chemstation software was coupled to a PE Sciex API 365 mass spectrometer with an electrospray ion source. HPLC was performed on a TSK-Gel Super ODS, […], 4.6×50 mm (TosoHaas) reversed phase column equipped with a […] C18 guard disc (Higgins Analytical) and stainless steel frit (Upchurch Scientific). Chromatography was performed at room temperature. The flow rate was 0.5 ml/min. Injection volume was 50 μL. Gradient elution was performed using a mobile phase of 20 mM aqueous AF pH 4.5 buffer with increasing amounts of acetonitrile. The API 365 was operated at 365° C. in a multiple reaction monitoring mode, set to monitor specific analyte parent-daughter ion pairs. Integration of chromatograms was performed by MacQuant software (PE Sciex) and quantitation of each analyte obtained by comparison to previously obtained calibration curves. Daunorubicin was used as an internal standard in all cases.
For the calculation of percent of administered dose, plasma volume was estimated to be 40% of blood volume, which was calculated as 7% of animal's body weight. At 2 and 24 hours the parent compound was detected in urine at 3.9% and 15.0% of the administered dose, showing that the kidney is a major organ of excretion for the prodrug (FIG. 17).
Plasma samples were obtained at 1 and 4 hours from separate mice. Urine was collected at 2 and 24 hours post administration from pairs of mice in metabolic cages. The plasma and urine samples were prepared and analyzed as described in Example 17.

[3] = test system: LNCaP (prostate carcinoma) cells
Method: (§3) Adherent cells, LNCaP (prostate carcinoma), HT-29 (colon carcinoma) and PC-3 (prostate carcinoma), were cultured in DMEM media containing 10% heat inactivated fetal calf serum (FCS). On the day of the study the cells were detached from the plate with a trypsin solution. The collected cells were washed and resuspended at a concentration of 0.25×10^6 cells/ml in DMEM containing 10% FCS. 100 μl of cell suspension were added to 96 well plates and the plates were incubated for 3 hours to allow the cells to adhere. […] The plates were then incubated for 24 hours, pulsed with 10 μl of a 100 μCi/ml ^3H-thymidine and incubated for an additional 24 hours (total incubation time 48 hours). The plates were harvested using a 96 well Harvester (Packard Instruments) and counted on a Packard Top Count Counter. Four parameter logistic curves were fitted to the ^3H-thymidine incorporation as a function of drug molarity using Prism software to determine IC50 values.
as §3, with “carcinoma), PC-3 (prostate” for “carcinoma), HT-29 (colon”, “and 22 RV1” for “and PC-3”, “with 1:0” for “with 10”
as §2

## COc1cccc2c1C(=O)c1c(O)c3c(c(O)c1C2=O)C[C@@](O)(C(=O)CO)C[C@@H]3O[C@H]1C[C@H](N)[C@H](O)[C@H](C)O1 [Doxorubicin, reference compound]
Ramos cells (CD10pos); Homo sapiens, Ramos, 24 h, read-out: IC50 Ramos
  IC50: 0.01 µM
Ramos cells (CD10pos); Homo sapiens, Ramos, read-out: IC50 Ramos
  IC50: 0.01 µM
BALL-1 cells (CD10neg); Homo sapiens, BALL-1, 24 h, read-out: IC50 Ball-1
  IC50: 0.02 µM
[1]; 4 mg/kg Q7D × 3
  TGI D22: 52.2 ± 28.8%
  Tumor Weight (mg) D22: 323.8 ± 60.8 mg
  Toxic Endpoint: 1
  Cancer Endpoint: 4
[1]; 4 mg/kg Q7D × 3, Day 22
  loss of group mean adjusted body weight: about 7%
[1]; 4 mg/kg Q7D × 3, N 8
  Survivor D36: D36: 3
[2]; after Suc-Ile-Ala-Leu-Dox 117 mg/kg, collected 0-2 hours
  Urine (% adm. dose) 2 hr: 0.06 % adm. dose
[2]; after Suc-Ile-Ala-Leu-Dox 117 mg/kg, collected 2-24 hours
  Urine (% adm. dose) 24 hr: 0.36 % adm. dose
[2]; mouse, in vivo, 4 h
  Plasma (% adm. dose) 4 hr: 0.00 % adm. dose

## CC[C@H](C)[C@H](NC(=O)CCC(=O)O)C(=O)N[C@@H](C)C(=O)N[C@@H](CC(C)C)C(=O)N[C@H]1C[C@H](O[C@H]2C[C@](O)(C(=O)CO)Cc3c(O)c4c(c(O)c32)C(=O)c2c(OC)cccc2C4=O)O[C@@H](C)[C@H]1O [Suc-Ile-Ala-Leu-Dox]
Ramos cells (CD10pos)
  Ratio Ball-1:Ramos: 4
Ramos cells (CD10pos); read-out: IC50 Ramos, 24 hours
  IC50: 6.43 µM
BALL-1 cells (CD10neg); read-out: IC50 Ball-1, 24 hours
  IC50: 26 µM
[3]; ratio of IC50
  Ratio PC-3:LNCaP: 83
[3]; read-out: IC50 LNCAP, 48 hours total incubation
  IC50: 1.1 µM
[2]; mouse, in vivo, after Suc-Ile-Ala-Leu-Dox 117 mg/kg, collected 0-2 hours, read-out: Urine (% adm. dose) 2 hr
  dose excreted: 3.9%
[2]; mouse, in vivo, after Suc-Ile-Ala-Leu-Dox 117 mg/kg, collected 2-24 hours, read-out: Urine (% adm. dose) 24 hr
  dose excreted: 15%

## CC[C@H](C)[C@H](NC(=O)CCNC(=O)CCC(=O)O)C(=O)N[C@@H](C)C(=O)N[C@@H](CC(C)C)C(=O)N[C@H]1C[C@H](O[C@H]2C[C@](O)(C(=O)CO)Cc3c(O)c4c(c(O)c32)C(=O)c2c(OC)cccc2C4=O)O[C@@H](C)[C@H]1O [Suc-βAla-Ile-Ala-Leu-Dox]
Ramos cells (CD10pos); 24 h
  IC50: 0.42 µM
Ramos cells (CD10pos)
  Ratio Ball-1:Ramos: 120
BALL-1 cells (CD10neg); 24 h
  IC50: 50 µM
[1]; 40 mg/kg (22 Dox equi) Q7D × 3
  Tumor Weight (mg) D22: D22: 152.1 ± 19.3 mg
[1]; 40 mg/kg (22 Dox equi) Q7D × 3, listed as Suc-bAla-Ile-Ala-Leu-Dox
  TGI D22: 77.5 ± 27.5%
[1]; 40 mg/kg Q7D × 3, N 8
  Survivor D36: D36: 8**
[1]; 40 mg/kg Q7D × 3
  Toxic Endpoint: 0
  Cancer Endpoint: 0
[3]; 48 h
  IC50: 0.15 µM
[3]; LnCap, ratio of IC50
  Ratio Suc-β-Ala-Ile-Ala-Leu/Dox: 3
[3]; ratio of IC50
  Ratio PC-3:LNCaP: 300
[2]; mouse, in vivo, Urine (% adm. dose) 2 hr
  dose excreted: 12.7%
[2]; mouse, in vivo, Urine (% adm. dose) 24 hr
  dose excreted: 4.81%

## COc1cccc2c1C(=O)c1c(O)c3c(c(O)c1C2=O)C[C@@](O)(C(=O)CO)C[C@@H]3O[C@H]1C[C@H](NC(=O)[C@H](CC(C)C)NC(=O)[C@H](C)NC(=O)[C@H](CC(C)C)NC(=O)CCNC(=O)CCC(=O)O)[C@H](O)[C@H](C)O1 [Suc-βAla-Leu-Ala-Leu-Dox]
Ramos cells (CD10pos)
  IC50: 0.84 µM
  Ratio Ball-1:Ramos: 2
Ramos cells (CD10pos); 24 h
  IC50: 6.93 µM
BALL-1 cells (CD10neg); 24 h
  IC50: 17 µM
[1]; 32 mg/kg (18 Dox equi) Q7D × 3
  TGI D22: 82.8 ± 27.7%
  Tumor Weight (mg) D22: 116.3 ± 30.2 mg
[1]; 32 mg/kg Q7D × 3, N 8
  Survivor D36: 8**
[1]; 32 mg/kg Q7D × 3
  Toxic Endpoint: 0
  Cancer Endpoint: 0
[1]; 40 mg/kg Q7D × 3
  Toxic Endpoint: 0
  Cancer Endpoint: 0
[1]; 50 mg/kg (28 Dox equi) Q7D × 3
  TGI D22: 78.8 ± 27.5%
  Tumor Weight (mg) D22: 143.4 ± 19.0 mg
[1]; 50 mg/kg Q7D × 3, N 8
  Survivor D36: 8**
[1]; 50 mg/kg Q7D × 3
  Toxic Endpoint: 0
  Cancer Endpoint: 0
[1]; all three doses (32, 40, 50 mg/kg) Q7D × 3, to Day 36
  maximal loss of group mean adjusted body weight: ≤ 3%
[3]
  IC50: 0.51 µM
[3]; 48 h
  IC50: 0.87 µM
[3]; LNCaP cells treated with 100 nM of phosphoramidon (data not shown)
  shift of IC50: 7 fold
[3]; ratio of IC50
  Ratio PC-3:LNCaP: 32
